# Test results as given in patent publication US7115666B2, “Nitrone compounds, pharmaceutical compositions containing the same and methods for treating inflammation and neuropathic pain” (Renovis, Inc., priority 2002, dated 2006).
# “Also recorded” adds a separate entry of the source.
# How the values were obtained:
# [1] = system: chronic constriction injury (CCI) rat model of peripheral neuropathy; assay: Cold allodynia assay in chronic constriction injury (CCI) rats; format: in vivo
# Protocol: The purpose of the following studies was to determine whether test compounds had analgesic activity in a chronic constriction injury (CCI) rat model of peripheral neuropathy. Neuropathic rats were treated with PBN, and other test compounds or 2.5% DMSO in 1.0% MC as a vehicle and tested in a cold allodynia assay to evaluate nociceptive responses.
# One week prior to the cold allodynia assay, CCI rats were prepared as follows. Male Sprague Dawley rats (158–224 g) had their right sciatic nerve loosely ligated under aseptic conditions. To observe the cold allodynia response, their paw withdrawal latency response was determined by placing rats in a cold water bath (2–4° C., 2.5 cm deep). […] Rats rendered neuropathic in the right limb display an exaggerated withdrawal response on the neuropathic side (right rear limb). For the cold allodynia assay, two pre-dose latency times to cold were recorded. The end point was an exaggerated removal of the paw from the water. […] The remaining rats were divided into treatment groups. Two separate latency times were obtained for each rat before the dose of each drug. In the first study shown in FIG. 1, rats were then dosed with Compound 1 (30 mg/kg, po) or PBN (100 mg/kg, po) as a suspension in Veh, or Veh alone (1 ml/kg, po). In the second study shown as FIG. 2, three different doses of Compound 1 (10, 30, 100 mg/kg, po) were administered to CCI rats. In both studies, latency to withdraw the ligated leg up above water level was recorded using an electronic timer. The tester was blinded to the animal's treatment group at the time of testing.
# Maximum time of latency in any trial was 20 sec. Statistical significance was assessed for paired groups (pre-dose vs. post-dose) using a Wilcoxon test and between non-paired groups using a Kruskal-Wallis with a Dunn's test post-hoc. A probability value of p<0.05 was identified as statistically significant.
# [2] = system: collagen footpad edema in rats; assay: Collagen arthritis assay; format: in vivo, rat; conditions: for paw volume differences after treatment: FIG. 3; for activity in rat collagen model: dose not stated (Assay Results summary)
# Protocol: This assay is commonly used to screen and evaluate anti-inflammatory drug candidates. See, for example, Larsson et al., Arthritis & Rheumatism, 33:693–701, 1990 and references cited therein.
# For these experiments, Female DA rats (7–8 weeks of age) were immunized with Type II collagen derived from bovine nasal septum as described in Cremer et al., J. of Immunology, 149:1045–1053, 1992. The collagen was dissolved and administered with incomplete Freund's adjuvant. Standard precautions were taken to avoid denaturing the collagen before its administration such as keeping the solution cold during preparation. Rats were immunized in the base of the tail on day 0. Dosing began on day 10 with rat paws weighed and volumes taken on day 21. The arthritis was evaluated by comparing paw weights and/or paw volumes at day 21. Compounds reducing paw weight or paw volumes by at least about 30% compared to the controls were also considered effective in this assay.
# [3] = system: Taxol-induced neuropathic pain model in mice; assay: Taxol-induced neuropathic pain model, mechanical allodynia (von Frey filament); format: in vivo
# Source text: Taxol is a chemotherapeutic reagent for treatment of cancer patients. Cancer patients under Taxol chemotherapy can develop neuropathic pain, with a symptom of severe mechanical allodynia, so that a light touch (non-noxious stimulus in a normal condition) becomes painful. […] Recent studies have shown that Taxol is involved in TNF-alpha release in microglia cells. As one of the clinically relevant models, Taxol-induced neuropathic pain was developed in mice and rats. It is believed that small-diameter high threshold nociceptive C-fibers in the peripheral sensory nervous systems are largely, if not exclusively, affected in the Taxol-induced neuropathic pain models.
# In this series of experiments, five-week old, male C57B1/6 mice were purchased from Charles River and housed at the Renovis animal facility in South San Francisco. Mice were trained for one week in an enclosure made of Plexiglas with dimensions of 2 in×2.5 in×3.5 in (W, H, and L) with a meshed metal support. The baseline of response to mechanical stimulus was measured using a von Frey Filament (0.6 g=3.84 mN). Normally, the baseline response is between 0 to 40%.
# Taxol was dissolved (1 mg/ml) in 50% Cremophor EL and 50% alcohol, and freshly diluted with saline to the final concentration of 0.2 mg/ml in 10% Cremophor EL, 10% alcohol. Mice were administered Taxol at 1 mg/kg of body weight, via i.p. daily, while the animals of the control group received vehicle (10% Cremophor EL and 10% alcohol in saline).
# Animals receiving this daily dose of Taxol will develop neuropathic pain. The mechanical allodynia was measured at day 7, 8, or 14 after Taxol administration.
# A quantity of 200 mg of compound 14 (Example 14) was dissolved in 0.4 ml of 100% DMSO to yield a concentration of 500 mg/ml, and was kept at 4° C. until use. Methylcellulose was dissolved in deionized-distilled water to yield a concentration of 1%. The freshly prepared meythlcellulose was used to make a suspension of the compound, 10 mg of compound in 2.5% DMSO (V/V) and 1% methylcellulose. The suspension was sonicated for 6 min with a 5 second interval every 30 seconds before administration to animals.
# A quantity of 50 mg/kg (body weight) compound or vehicle (2.5% DMSO and 1% methylcellulose), 100 μl/20 g (body weight) was given to animals via gavage feeding procedure in a randomized, blinded fashion. The animals were then placed in the enclosure for assay. Mechanical allodynia was measured with von Frey filament (0.6 g=[…]) at various times after administration.
# Referring to FIG. 5, baseline in the group of animals was measured as 25+/−4% (n=24, ±SEM) before induction of neuropathic pain with Taxol (or sham treatment), where the response was measured with a von Frey filament (0.6 g=3.84 mN) as the percent of trials a withdrawal response is observed after probing with the filament. The higher the percentage, the greater the inferred pain.
# Sixteen animals were treated with Taxol daily to induce neuropathic pain. Mechanical allodynia was assayed at day 8; average withdrawal response was measured as 81±5% (n=16, ±SEM). Sixteen animals were treated with matching vehicle to create sham animals. The Taxol and sham animals were then separated randomly into two groups of 8 animals each for drug vs. vehicle testing. Withdrawal responses to a von Frey filament probe were measured at 1, 6, 24, and 72 hours post-administration of drug or vehicle control, and averaged for each animal. […] Negative values reflect a reduction in inferred pain.
# For mouse neuropathic pain studies, C57B1/6 strain, five-weeks old male mice were obtained from Charles River, San Diego, Calif. A total of 120 mice were used for the studies. 4 mice per cage were housed under standard conditions with 12-hour light and 12-hour dark cycles (in Renovis, Inc, South San Francisco facility). For rat neuropathic pain studies, male Sprague-Dawley rats, with body weights ranging from 180–200 grams, were obtained from Harlan. A total of 42 rats were used for this study. […]
# [4] = system: adjuvant-induced footpad edema in rats; assay: Adjuvant assay (adjuvant-induced footpad edema); format: in vivo, rat
# Protocol: This assay is a model for chronic inflammation. See, for example, B. M. Weichman, “Rat Adjuvant Arthritis: A Model of Chronic Inflammation,” Pharmacological Methods in the Control of Inflammation, 363–380 (1989) and references cited therein.
# In this assay, Male Lewis rats weighing between 180–220 g were lightly anesthetized with an ip injection of 30 mg/kg of sodium pentobarbital (50 mg/ml). Desiccated Mycobacterium butyrium (Difco, 20 mg/ml) suspended in mineral oil was injected (50 μL) at both sides of the base of the tail under the skin. A line was tattooed on both rear paws at 5 mm above the angle of the ankle. The paw volumes, under the line, were measured by volume displacement using a plethysmometer (Ugo Basile) at the day of adjuvant injection (day 0) and on day 14. On day 14, animals with paw volumes equal to the mean of paw volumes ±SD were randomized into treatment groups. Rats which fell outside ±1 SD were not used in the experiment. One group received vehicle (1% methyl cellulose) by the po route and the other group received indomethacin (3 mg/kg suspended in 1% methyl cellulose). Dosing began on day 14, and continued until final assessment on day 21 post-adjuvant injection. […] This group has a slightly positive volume increase when paw volumes on day 21 are subtracted from day 0 values due to growth of the rat. […]
# [5] = FIG. 2, 30 mg/kg, p.o., 90 min post-dose
# [6] = FIG. 2, 100 mg/kg, p.o., 90 min post-dose
# [7] = Taxol/mice, P.O., Single dosing, 50 Mg/Kg body weight
# [8] = dose not stated (Assay Results summary)
smiles,measurement,setting,value
"CC(C)(C)[N+]([O-])=CCCc1ccccc1 [Compound 1, N-tert-butyl-C-(2-phenylethyl)nitrone]",activity in a model of painful peripheral neuropathy,"[1]; 10 mg/kg, po",significantly active
same,post-dose latency score vs. vehicle,"[1]; FIG. 1, 30 mg/kg, p.o., 90 min post-dose, Kruskal-Wallis, Dunn's test",signficant post-dose latency score over vehicle
same,"latency to cold stimulus, post-dose vs. pre-dose score","[1]; FIG. 1, 30 mg/kg, p.o., 90 min post-dose, Wilcoxon test",Significantly higher latency scores
same,"latency time, post-dose vs. pre-dose score","[1]; FIG. 2, 10 mg/kg, p.o., 90 min post-dose",significantly increased latency time
same,"latency time, post-dose vs. pre-dose score",[1]; [5],significantly increased latency time
same,post-dose latency score vs. vehicle,[1]; [5],significant post-dose latency score over vehicle
same,"latency time, post-dose vs. pre-dose score",[1]; [6],significantly increased latency time
same,post-dose latency score vs. vehicle,[1]; [6],significant post-dose latency score over vehicle
same,paw volume differences after treatment,[2]; dose not stated,unexpected activity
same,total gait scores as an index of pain,"[2]; FIG. 4, lowering indicates relief from pain",significant activity; also recorded: activity as an analgesic
same,activity in rat collagen model,[2],significantly active
same,time postdosing of analgesic effect,[3]; 50 mg/kg single dose via oral gavage,1 h
same,effect on mechanical allodynia (Taxol-induced pain),"[3]; 50 mg/kg single dose via oral gavage, von Frey filament 0.6 g, measured 1, 6, 24, up to 48 or 72 hours postdosing",analgesic effect
same,Effective time Hour post dosing,[3]; [7],~1 h
same,extent of block of mechanical allodynia,[3]; [7],partial
"COc1ccc(CCC=[N+]([O-])C(C)(C)C)cc1 [Compound 4, N-tert-butyl-C-[2-(4-methoxyphenyl)ethyl]nitrone]",Effective time Hour post dosing,[3]; [7],None via p.o.
"CC(C)Oc1ccc(CCC=[N+]([O-])C(C)(C)C)cc1 [Compound 6, N-tert-butyl-C-[2-(4-isopropoxyphenyl)ethyl]nitrone]",Effective time Hour post dosing,[3]; [7],None via p.o.
"CCOc1ccc(CCC=[N+]([O-])C(C)(C)C)cc1 [Compound 7, N-tert-butyl-C-[2-(4-ethoxyphenyl)ethyl]nitrone]",Effective time Hour post dosing,[3]; [7],None via p.o.
same,melting point,,54 to 57 °C
"CC(C)(C)[N+]([O-])=CCCc1ccc(NS(=O)(=O)c2ccccc2)cc1 [Compound 10, N-tert-butyl-C-[2-(4-benzenesulfonamidophenyl)ethyl]nitrone]",melting point,,160 °C
"CCC(C=[N+]([O-])C(C)(C)C)c1ccc(C(C)(C)C)cc1 (stereo not drawn) [Compound 15, N-tert-butyl-C-[1-(4-tert-butylphenyl)propyl]nitrone]",Effective time Hour post dosing,[3]; [7],None via p.o.
"COc1ccc(CC(C)C=[N+]([O-])C(C)(C)C)cc1 (stereo not drawn) [Compound 16, N-tert-butyl-C-[1–2-(4-methoxyphenyl)methylethyl]nitrone]",Effective time Hour post dosing,[3]; [7],None via p.o.
"[O-][N+](=CCCc1ccccc1)C1CCCCC1 [Compound 18, N-Cyclohexyl-C-(2-phenylethyl)nitrone]",melting point,,97.2 °C
CC(C)(C)c1cc(CCC=[N+]([O-])C(C)(C)C)cc(C(C)(C)C)c1O [Compound 21],Effective time Hour post dosing,[3]; [7],None via p.o.
COc1ccc2c(c1)c(CC(=O)O)c(C)n2C(=O)c1ccc(Cl)cc1 [Indomethacin],paw volume as compared to vehicle controls,"[4]; 3 mg/kg, po, dosing day 14 to day 21 post-adjuvant",significantly reduced paw volume
"CC(C)(C)[N+]([O-])=Cc1ccccc1 [PBN, N-tert-butyl phenyl nitrone, reference compound]",activity in cold allodynia assay,"[1]; FIG. 1, 100 mg/kg, p.o., 90 min post-dose",completely inactive
same,activity in the analgesic assay,[1]; [8],completely inactive
same,activity in the adjuvant assay,[4]; [8],completely inactive
same,paw volume differences after treatment,[2]; 100 mg/kg,inactive
same,activity in rat collagen model,[2],completely inactive
